# Source: PMC10246002 (bioRxiv, 2023)
# Test system: human tracheobronchial epithelial cells (hTECs)
# Assay type: cell-based
# Conditions: hTEC ALI culture with IL-13, resazurin assay
structure (smiles),measurement,value
"Cc1ccc(-n2nc(C(C)(C)C)cc2NC(=O)Nc2ccc(OCCN3CCOCC3)c3ccccc23)cc1 [NuP-43, BIRB-796]",number of viable cells,no significant effects
